Key:
Assay type in all cases: functional, organism-based
[1] = tested on: Human alphaherpesvirus 2; test: Antiviral activity against HSV-2 infected in human ARPE-19 cells assessed as inhibition of viral replication incubated for 16 hrs by fluorescence based analysis; details: Human alphaherpesvirus 2, ARPE-19, 16 h
[2] = tested on: Human alphaherpesvirus 1; test: Antiviral activity against HSV-1 by CPE assay
[3] = tested on: Human alphaherpesvirus 2; test: Antiviral activity against HSV-2
[4] = tested on: Human alphaherpesvirus 1; test: Antiviral activity against HSV-1

IC50 [1] | IC50 ([3]; Human alphaherpesvirus 2) | IC50 [2] | IC50 [3] | Structure (SMILES) | also measured
6 nM |  |  |  | NS(=O)(=O)c1cc2c(cc1F)CCN2C(=O)[C@@H]1Cc2ccc(-c3ccccn3)cc2C1 | 
 | 16 nM |  |  | Cc1nc(N(C)C(=O)[C@@H]2Cc3ccc(-c4cc(F)ccc4F)cc3C2)sc1S(N)(=O)=O | IC50 ([2]; Human alphaherpesvirus 1): 1 nM
37 nM |  |  |  | CS(=N)(=O)c1cc2c(cc1F)CCN2C(=O)[C@@H]1Cc2ccc(-c3ccccn3)cc2C1 (stereo partly specified) | 
48 nM |  |  |  | CS(=N)(=O)c1cc2c(cc1F)CCN2C(=O)[C@@H]1Cc2ccc(-c3cc(F)ccc3F)cc2C1 (stereo partly specified) | 
12 nM |  |  |  | NS(=O)(=O)c1cc2c(cc1F)CCN2C(=O)[C@@H]1Cc2ccc(-c3cc(F)ccc3F)cc2C1 | 
 | 28 nM |  |  | Cc1nc(N(C)C(=O)Cc2ccc(-c3cc(F)ccc3F)cc2)sc1S(C)(=N)=O (stereo unspecified) | IC50 [4]: 19 nM
 | 16000 nM |  |  | Cc1nc(N(C)C(=O)[C@H]2Cc3ccc(-c4cc(F)ccc4F)cc3C2)sc1S(N)(=O)=O | IC50 ([2]; Human alphaherpesvirus 1): 2000 nM
 |  |  |  | Cc1nc(N(C)C(=O)[C@@H]2Cc3ccc(-c4ccccn4)cc3C2)sc1S(N)(=O)=O | IC50 ([2]; Human alphaherpesvirus 1): 7 nM
 |  | 25000 nM | 25000 nM | Cc1nc(N(C)C(=O)C2Cc3ccc(-c4cc(F)ccc4F)cc3C2)sc1S(C)(=N)=O (stereo in doubt; 2a) | 
 |  | 300 nM | 1250 nM | Cc1nc(N(C)C(=O)C2Cc3ccc(-c4cc(F)ccc4F)cc3C2)sc1S(C)(=N)=O (stereo in doubt; 2b) | 
 |  | 400 nM | 2000 nM | Cc1nc(N(C)C(=O)C2Cc3ccc(-c4cc(F)ccc4F)cc3C2)sc1S(C)(=N)=O (stereo in doubt; 2c) | 
 |  | 8000 nM | 50000 nM | Cc1nc(N(C)C(=O)C2Cc3ccc(-c4cc(F)ccc4F)cc3C2)sc1S(C)(=N)=O (stereo in doubt; 2d) | 
 | 20 nM |  |  | Cc1nc(N(C)C(=O)Cc2ccc(-c3ccccn3)cc2)sc1S(N)(=O)=O [PRITELIVIR] | IC50 [4]: 20 nM

From ChEMBL document CHEMBL5576046, “Replacement of sulfonamide by sulfoximine within a helicase-primase inhibitor with restricted flexibility” (Bioorg Med Chem Lett, 2024)
